In patent US7932270B2 (Cytokinetics, Inc., priority 2006, dated 2011):
pIC50: −log10 of the molar value.

Molecular target: T1, chicken gizzard smooth muscle myosin subfragment-1 chemically crosslinked to cardiac or skeletal actin (Gallus gallus, UniProt P10587)
T1 construct: chicken gizzard smooth muscle myosin subfragment-1; from tissue; host or cells: chicken gizzard
Test: Smooth muscle myosin ATPase dose response assay (pyruvate kinase/horseradish peroxidase/pyruvate oxidase-coupled, amplex red fluorescence)
Format: biochemical
Conditions: read-out: IC50 Arithmetic Mean
Summary of the method: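 ATPase monitored by amplex red fluorescence (ex 480/em 615 nm) via pyruvate oxidase/HRP coupling, pH 7.00, ATP 0.15 mM. Enzyme: smooth muscle S1-actin crosslinked conjugate, amount set empirically by titration. Dose-response fitted with 4-parameter Hill equation for IC50.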

T1 sequence (P02607 2-151): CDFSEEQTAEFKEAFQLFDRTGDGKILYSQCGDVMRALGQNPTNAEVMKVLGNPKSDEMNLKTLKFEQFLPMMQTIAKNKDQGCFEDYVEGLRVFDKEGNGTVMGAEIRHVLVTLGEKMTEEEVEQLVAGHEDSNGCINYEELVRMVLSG
T1 sequence (P10587 84-789): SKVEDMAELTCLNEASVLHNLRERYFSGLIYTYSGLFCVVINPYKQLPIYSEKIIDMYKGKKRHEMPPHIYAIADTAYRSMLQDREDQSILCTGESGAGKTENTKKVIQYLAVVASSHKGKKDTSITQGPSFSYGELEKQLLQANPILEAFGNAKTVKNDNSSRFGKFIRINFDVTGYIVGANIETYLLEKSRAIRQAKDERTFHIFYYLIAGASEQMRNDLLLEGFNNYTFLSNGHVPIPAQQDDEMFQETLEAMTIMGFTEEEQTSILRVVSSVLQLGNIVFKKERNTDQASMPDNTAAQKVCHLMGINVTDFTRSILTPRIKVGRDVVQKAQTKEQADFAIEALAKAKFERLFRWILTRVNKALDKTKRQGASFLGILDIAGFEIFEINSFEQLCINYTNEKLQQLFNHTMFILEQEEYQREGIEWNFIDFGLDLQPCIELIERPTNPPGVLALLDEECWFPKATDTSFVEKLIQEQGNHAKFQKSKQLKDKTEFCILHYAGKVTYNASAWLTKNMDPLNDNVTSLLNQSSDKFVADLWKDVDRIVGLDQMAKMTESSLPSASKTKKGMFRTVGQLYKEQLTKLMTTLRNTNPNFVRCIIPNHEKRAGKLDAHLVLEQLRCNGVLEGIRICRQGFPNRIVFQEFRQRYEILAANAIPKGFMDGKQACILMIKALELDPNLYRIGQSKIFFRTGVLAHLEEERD

Compound | pIC50
O=C(NCc1cccnc1)c1cc(CO)c(-c2ccccc2)nc1NCCc1cccc(F)c1 [(2-{[2-(3-fluorophenyl)ethyl]amino}-5-(hydroxymethyl)-6-phenyl(3-pyridyl))-N-(3-pyridylmethyl)carboxamide] | 6.20
CC(C)(C)OC(=O)NCCCN1CCC(CNC(=O)c2ccc(-c3ccccc3C#N)nc2NCCc2cccc(F)c2)C1=O (stereo not shown) [N-[(1-{3-[(tert-butoxy)carbonylamino]propyl}-2-oxopyrrolidin-3-yl)methyl](6-(2-cyanophenyl)-2-{[2-(3-fluorophenyl)ethyl]amino}(3-pyridyl))carboxamide] | 6.98
N#Cc1ccccc1-c1ccc(C(=O)NCc2ccc(N3CCCC3)nc2)c(NCCc2cccc(F)c2)n1 [(6-(2-cyanophenyl)-2-{[2-(3-fluorophenyl)ethyl]amino}(3-pyridyl))-N-[(6-pyrrolidinyl(3-pyridyl))methyl]carboxamide] | 4.18
Cn1cc(-c2nc(NCCc3cccc(F)c3)c(C(=O)NC[C@H]3CCC(=O)N3CCCN)cc2C#N)cn1 [N-{[(2R)-1-(3-aminopropyl)-5-oxopyrrolidin-2-yl]methyl}(5-cyano-2-{[2-(3-fluorophenyl)ethyl]amino}-6-(1-methylpyrazol-4-yl)(3-pyridyl))carboxamide] | 6.51
COCCN[C@H](C)CNC(=O)c1cc(F)c(-c2cnn(C)c2)nc1NCCc1cccc(F)c1 [N-{(2R)-2-[(2-methoxyethyl)amino]propyl}(5-fluoro-2-{[2-(3-fluorophenyl)ethyl]amino}-6-(1-methylpyrazol-4-yl)(3-pyridyl))carboxamide] | 5.63
CC(=O)N1CCC(CNC(=O)c2ccc(-c3ccccc3C#N)nc2NCCc2cccc(F)c2)CC1 [N-[(1-acetyl(4-piperidyl))methyl](6-(2-cyanophenyl)-2-{[2-(3-fluorophenyl)ethyl]amino}(3-pyridyl))carboxamide] | 5.77
O=C(NCc1cccnc1)c1ccc(-c2ccccc2)nc1NCCc1c[nH]cn1 [{2-[(2-imidazol-4-ylethyl)amino]-6-phenyl(3-pyridyl)}-N-(3-pyridylmethyl)carboxamide] | 5.01
CN(CCNC(=O)c1ccc(-c2ccccc2C#N)nc1NCCc1cccc(F)c1)C(=O)CNC(=O)OC(C)(C)C [2-[(tert-butoxy)carbonylamino]-N-{2-[(6-(2-cyanophenyl)-2-{[2-(3-fluorophenyl)ethyl]amino}(3-pyridyl))carbonylamino]ethyl}-N-methylacetamide] | 4.82
O=C(NCc1cccnc1)c1ccc(-c2cccs2)nc1NCCc1cc(F)cc(F)c1 [(2-{[2-(3,5-difluorophenyl)ethyl]amino}-6-(2-thienyl)(3-pyridyl))-N-(3-pyridylmethyl)carboxamide] | 7.01
N#Cc1ccccc1-c1ccc(C(=O)NC[C@H]2CCCCN2C(=O)CN)c(NCCc2cccc(F)c2)n1 [N-{[(2R)-1-(2-aminoacetyl)(2-piperidyl)]methyl}(6-(2-cyanophenyl)-2-{[2-(3-fluorophenyl)ethyl]amino}(3-pyridyl))carboxamide] | 7.04
O=C(NCc1cc[nH]n1)c1cc(F)c(-c2cn[nH]c2)nc1NCCc1cccc(F)c1 [(5-fluoro-2-{[2-(3-fluorophenyl)ethyl]amino}-6-pyrazol-4-yl(3-pyridyl))-N-(pyrazol-3-ylmethyl)carboxamide] | 7.62
Cc1cccc(CCNc2nc(-c3ccccc3)ccc2C(=O)NCc2cccnc2)c1 [(2-{[2-(3-methylphenyl)ethyl]amino}-6-phenyl(3-pyridyl))-N-(3-pyridylmethyl)carboxamide] | 6.35
N#Cc1ccccc1-c1ccc(C(=O)NC[C@H]2CCCCN2C(=O)[C@@H](N)CCCN)c(NCCc2cccc(F)c2)n1 [N-{[(2R)-1-((2S)-2,5-diaminopentanoyl)(2-piperidyl)]methyl}(6-(2-cyanophenyl)-2-{[2-(3-fluorophenyl)ethyl]amino}(3-pyridyl))carboxamide] | 7.32
N#Cc1ccccc1-c1ccc(C(=O)NCc2ccno2)c(NCCc2cccc(F)c2)n1 [(6-(2-cyanophenyl)-2-{[2-(3-fluorophenyl)ethyl]amino}(3-pyridyl))-N-(isoxazol-5-ylmethyl)carboxamide] | 7.68
Cn1cc(-c2nc(NCCc3cccc(F)c3)c(C(=O)NCc3cccnc3)cc2Cl)cn1 [(5-chloro-2-{[2-(3-fluorophenyl)ethyl]amino}-6-(1-methylpyrazol-4-yl)(3-pyridyl))-N-(3-pyridylmethyl)carboxamide] | 7.68
Cn1cc(-c2nc(NCCc3cccc(F)c3)c(C(=O)NCc3cccc(CN)n3)cc2Br)cn1 [N-{[6-(aminomethyl)(2-pyridyl)]methyl}(5-bromo-2-{[2-(3-fluorophenyl)ethyl]amino}-6-(1-methylpyrazol-4-yl)(3-pyridyl))carboxamide] | 7.57
N[C@@H](CO)C(=O)N1CCC[C@@H]1CNC(=O)c1cc(F)c(-c2cn[nH]c2)nc1NCCc1cccc(F)c1 [N-{[(2R)-1-((2S)-2-amino-3-hydroxypropanoyl)pyrrolidin-2-yl]methyl}(5-fluoro-2-{[2-(3-fluorophenyl)ethyl]amino}-6-pyrazol-4-yl(3-pyridyl))carboxamide] | 7.23
NC(=O)c1cccc(CCNc2nc(-c3ccccc3)ccc2C(=O)NCc2cccnc2)c1 [3-[2-({6-phenyl-3-[N-(3-pyridylmethyl)carbamoyl]-2-pyridyl}amino)ethyl]benzamide] | 4.94
N#Cc1ccccc1-c1ccc(C(=O)NCC(N)=O)c(NCCc2cccc(F)c2)n1 [N-(carbamoylmethyl)(6-(2-cyanophenyl)-2-{[2-(3-fluorophenyl)ethyl]amino}(3-pyridyl))carboxamide] | 6.98
Cn1cc(-c2ccc(C(=O)NCc3ccnn3CCCN)c(NCCc3cccc(F)c3)n2)cn1 [N-{[1-(3-aminopropyl)pyrazol-5-yl]methyl}(2-{[2-(3-fluorophenyl)ethyl]amino}-6-(1-methylpyrazol-4-yl)(3-pyridyl))carboxamide] | 6.64
CC(C)(C)OC(=O)NCc1ccc(CNC(=O)c2ccc(-c3ccccc3C#N)nc2NCCc2cccc(F)c2)nc1 [N-[(5-{[(tert-butoxy)carbonylamino]methyl}(2-pyridyl))methyl](6-(2-cyanophenyl)-2-{[2-(3-fluorophenyl)ethyl]amino}(3-pyridyl))carboxamide] | 4.16
N#Cc1ccccc1-c1ccc(C(=O)NC[C@H]2CCCN2C(=O)CCCO)c(NCCc2cccc(F)c2)n1 [N-{[(2R)-1-(4-hydroxybutanoyl)pyrrolidin-2-yl]methyl}(6-(2-cyanophenyl)-2-{[2-(3-fluorophenyl)ethyl]amino}(3-pyridyl))carboxamide] | 7.07
CN(CCNC(=O)c1ccc(-c2ccccc2C#N)nc1NCCc1cccc(F)c1)C(=O)CCCN [4-amino-N-{2-[(6-(2-cyanophenyl)-2-{[2-(3-fluorophenyl)ethyl]amino}(3-pyridyl))carbonylamino]ethyl}-N-methylbutanamide] | 5.92
O=C(NCc1cccnc1)c1ccc(-c2ccc(O)cc2)nc1NCCc1ccccn1 [{6-(4-hydroxyphenyl)-2-[(2-(2-pyridyl)ethyl)amino](3-pyridyl)}-N-(3-pyridylmethyl)carboxamide] | 6.23
Cn1ccc(-c2ccc(C(=O)NCc3cccnc3CN)c(NCCc3cccc(F)c3)n2)n1 [N-{[2-(aminomethyl)(3-pyridyl)]methyl}(2-{[2-(3-fluorophenyl)ethyl]amino}-6-(1-methylpyrazol-3-yl)(3-pyridyl))carboxamide] | 7.49
